Data on eleven molecules can be found in US20120077779A1, “Inhibitors of Fibroblast Activation Protein Alpha” (Trustees of Tufts College, priority 2005, published 2012).

In general, IC50 refers to the point on the concentration scale where inhibition reaches its midpoint.

One assay addresses T1, FAP (Homo sapiens, UniProt Q12884).
T1 sequence (Q12884 1-760): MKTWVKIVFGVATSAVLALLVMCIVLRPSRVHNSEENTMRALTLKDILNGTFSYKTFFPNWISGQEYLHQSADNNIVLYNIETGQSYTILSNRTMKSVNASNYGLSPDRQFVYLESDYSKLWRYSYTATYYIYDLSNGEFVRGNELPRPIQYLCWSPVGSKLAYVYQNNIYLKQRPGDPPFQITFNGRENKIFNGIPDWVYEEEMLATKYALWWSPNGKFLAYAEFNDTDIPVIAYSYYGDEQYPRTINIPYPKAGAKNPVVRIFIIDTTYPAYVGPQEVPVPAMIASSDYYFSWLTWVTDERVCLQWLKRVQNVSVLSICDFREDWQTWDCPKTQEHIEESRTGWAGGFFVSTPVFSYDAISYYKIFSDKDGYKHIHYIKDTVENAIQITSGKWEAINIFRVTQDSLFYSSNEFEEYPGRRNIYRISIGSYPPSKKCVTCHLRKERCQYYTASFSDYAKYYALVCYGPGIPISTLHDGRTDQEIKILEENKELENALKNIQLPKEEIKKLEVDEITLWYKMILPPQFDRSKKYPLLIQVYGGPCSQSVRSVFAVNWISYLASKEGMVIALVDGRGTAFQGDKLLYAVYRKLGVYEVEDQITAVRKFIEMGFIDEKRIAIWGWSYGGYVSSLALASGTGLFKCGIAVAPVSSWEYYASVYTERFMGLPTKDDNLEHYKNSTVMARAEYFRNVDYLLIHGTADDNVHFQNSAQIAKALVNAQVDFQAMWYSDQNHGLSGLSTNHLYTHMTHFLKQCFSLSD
As to the kind of experiment: Enzymatic activity of purified FAP, chromogenic substrate H-Ala-Pro-pNA. Type of assay: biochemical. The settings on record: pH 7.4, 25° C., 10 min pre-incubation with enzyme. The method, then:
The enzymatic activity of purified FAP was measured at 25° C. on a Molecular Devices SPECTRAmax 340PC384 microtiter plate reader by monitoring the absorbance of H-Ala-Pro-pNA (Bachem) as the chromogenic substrate at 410 nm. […] Assays and their corresponding measurements were performed in duplicate. […] Inhibitor stock solutions (1 mM) were prepared in HCl solution (pH 2.0), and stored at −20° C. Stock solutions were diluted with 20 mM TRIS-HCl, KCl (20 mM) buffer at pH 7.4 immediately preceding the experiment according to the protocol.
`CC(C)NCC(=O)N1CCCC1B(O)O` (stereo not shown) [Compound 15] had a concentration for half-maximal inhibition (IC50) of 0.99 µM.

With `N#C[C@@H]1CCCN1C(=O)CNC(=O)c1ccccc1` [Compound 30], inhibition was half-maximal at 2.2 µM (IC50).

Molecule `O=C(NCC(=O)N1CCSC1)c1ccccc1` [Compound 31] showed a concentration for half-maximal inhibition (IC50) of 14 µM.

The molecule `CC(C)[C@H](NC(=O)c1ccccc1)C(=O)N1CCC[C@H]1B(O)O` [Compound 32] showed a concentration for half-maximal inhibition (IC50) of 30 µM.

`C[C@H](NC(=O)CNC(=O)c1cccc2ccccc12)B(O)O` [Compound 33] came in with a 50% inhibitory concentration (IC50) of 8.2 µM.

In turn, `CC[C@H](NC(=O)CNC(=O)c1cccc2ccccc12)B(O)O` [Compound 34] showed an IC50 of 9 µM.

Staying with this assay, now noted: pH 7.4, 25° C., 10 min pre-incubation; result in words.
With `CNCC(=O)N1CCCC1B(O)O` (stereo not shown) [Compound 12], the “IC50 FAP (pH 7.4)” value is given as “no inhib”.

Take `CC(=O)N[C@H](C(=O)N[C@@H](C)B(O)O)C(C)C` [Compound 35]: the “IC50 FAP (pH 7.4)” value was “no inhib”.

As for `CC[C@H](NC(=O)[C@@H](NC(C)=O)C(C)C)B(O)O` [Compound 36], the “IC50 FAP (pH 7.4)” value is listed as “no inhib”.

The target in the next assay is DPP IV (Homo sapiens, UniProt P27487). As to the kind of experiment: DPP IV inhibition (Table 1). The settings on record: pH 8.0. Type of assay: biochemical.
Sequence of DPP IV (P27487 whole entry, species assumed): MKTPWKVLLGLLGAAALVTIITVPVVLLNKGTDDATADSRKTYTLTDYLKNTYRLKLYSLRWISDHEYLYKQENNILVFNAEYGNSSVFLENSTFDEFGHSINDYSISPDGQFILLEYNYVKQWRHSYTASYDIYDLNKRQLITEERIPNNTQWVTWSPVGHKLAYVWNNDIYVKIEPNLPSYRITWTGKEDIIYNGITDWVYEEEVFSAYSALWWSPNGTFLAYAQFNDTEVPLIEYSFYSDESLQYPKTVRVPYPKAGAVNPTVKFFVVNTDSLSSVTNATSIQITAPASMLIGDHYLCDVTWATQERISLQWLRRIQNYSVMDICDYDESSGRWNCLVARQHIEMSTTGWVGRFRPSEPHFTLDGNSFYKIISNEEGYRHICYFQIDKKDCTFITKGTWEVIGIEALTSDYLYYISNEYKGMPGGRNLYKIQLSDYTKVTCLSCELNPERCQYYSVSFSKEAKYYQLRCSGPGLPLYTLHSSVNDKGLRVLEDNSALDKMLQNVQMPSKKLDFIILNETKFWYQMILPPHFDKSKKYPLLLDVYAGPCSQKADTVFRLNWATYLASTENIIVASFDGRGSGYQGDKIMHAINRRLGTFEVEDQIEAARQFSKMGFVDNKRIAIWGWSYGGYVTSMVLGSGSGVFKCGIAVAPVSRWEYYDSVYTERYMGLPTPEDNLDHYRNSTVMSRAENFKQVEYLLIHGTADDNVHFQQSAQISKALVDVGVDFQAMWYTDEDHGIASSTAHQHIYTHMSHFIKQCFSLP
Consider `NCC(=O)N1CCC[C@H]1B(O)O` [Compound 6], for which the midpoint of inhibition, the IC50, lay at 6.9 µM.

Molecule `CNCC(=O)N1CCCC1B(O)O` (stereo not shown) [Compound 12] yielded a half-maximal inhibitory concentration (IC50) of 560 µM.

Take `CCNCC(=O)N1CCCC1B(O)O` (stereo not shown) [Compound 13]: inhibition was half-maximal at 46 µM (IC50).

`CC(C)NCC(=O)N1CCCC1B(O)O` (stereo not shown) [Compound 15] had a 50% inhibitory concentration (IC50) of 0.9 µM.
